The structures appear in SMILES notation. Active and inactive are the calls of the source. The rule behind the calls is not given here.

The subject of one assay is Gerbillinae. As to the kind of experiment: Anthelmintic activity against immunosuppressed Mongolian gerblis(jirds) inoculated with Haemonchus contortus and Trichostrongylus colubriform;found to be active. The format is functional.
Turning to `C=C1COc2c(ccc3c2NC(=O)[C@@]32C[C@@]34CN5CCCC[C@]5(C[C@@H]3C2(C)C)C(=O)N4C)OC1(C)C`, the result was Active.

A further assay has as its system Gerbillinae. As to the kind of experiment: Anthelmintic activity against immunosuppressed Mongolian gerblis(jirds) inoculated with Haemonchus contortus and Trichostrongylus colubriform; not active. Format: functional.
`C=C1COc2ccc3c(c2OC1)NC(=O)[C@@]31C[C@@]23CN4CCCC[C@]4(C[C@@H]2C1(C)C)C(=O)N3C`: the result was inactive.

Turning to `CN1C(=O)[C@@]23CCCCN2C[C@@]12C[C@@]1(C(=O)Nc4c1ccc1c4OCC(=O)C(C)(C)O1)C(C)(C)[C@H]2C3`, the result was inactive.

As to `CN1C(=O)[C@@]23CCCCN2C[C@@]12C[C@@]1(C(=O)Nc4c1ccc1c4OC=CC(C)(C)O1)C(C)(C)[C@H]2C3`, the outcome was inactive.

With `CN1C(=O)[C@@]23CCCCN2C[C@@]12C[C@@]1(C(=O)Nc4c1ccc1c4OCC4(CO4)C(C)(C)O1)C(C)(C)[C@H]2C3` (stereo not given in full), the result was inactive.

Consider `CN1C(=O)[C@@]23CCCCN2C[C@@]12C[C@@]1(C(=O)Nc4c1ccc1c4OCC(O)C(C)(C)O1)C(C)(C)[C@H]2C3` (stereo not given in full), for which the outcome was inactive.

In the case of `CN1C(=O)[C@]23C[C@@H]4C(C)(C)[C@@]5(C[C@@]41CN2CC[C@@]3(C)O)C(=O)Nc1c5ccc2c1OC=CC(C)(C)O2`, the outcome was inactive.

Consider `CN1C(=O)[C@@]23CCCCN2C[C@@]12C[C@@]1(C(=O)Nc4c1ccc1c4OCC(C)(O)C(C)(C)O1)C(C)(C)[C@H]2C3` (stereo not given in full), for which the outcome was inactive.

Turning to `CN1C(=O)[C@@]23CCCCN2C[C@@]12C[C@@]1(C(=O)Nc4c1ccc(O)c4O)C(C)(C)[C@H]2C3`, the result was inactive.

With `CC1=COc2c(ccc3c2NC(=O)[C@@]32C[C@@]34CN5CCCC[C@]5(C[C@@H]3C2(C)C)C(=O)N4C)OC1(C)C`, the result was inactive.

The record behind these values is ChEMBL document CHEMBL1130697, “C24 and C25 substituted marcfortine A derivatives” (Bioorg Med Chem Lett, 1998).
